Measurements: patent publication US12011432B2, “Method of modulating ribonucleotide reductase” (CASE WESTERN RESERVE UNIVERSITY, priority 2018, dated 2024)

Experiments:
[1] = system: Human pancreatic cancer cells (Pancl); assay: Cancer cell line growth inhibition assay (DNA content); format: cell-based; set-up: inhibition of growth of Pancl cells: dose or concentration left out as unconfirmed; settings: for IC50: Homo sapiens, Pancreatic cancer cell, 72 h, continuous exposure for three days; for IC50 / activity/potency against growth of Pancl cells (in words): DNA content per well; for inhibition of growth of Pancl cells / activity/potency against growth of Pancl cells (in words): three days
Protocol: Growth inhibition assays were performed in the Translational Research Shared Resource of the Case Comprehensive Cancer Centre. Human pancreatic cancer cells (Pancl) were maintained in standard growth medium consisting of (RPMI1640+10% FBS+2 mM glutamine+100 U/mL penicillin, and […] streptomycin). Cells were monitored and shown to be negative for mycoplasma contamination using the Mycoplasma Detection kit (MycoAlert™, Lonza, Basel, Switzerland). For growth inhibition assays, cells were harvested by trypsinisation and seeded into 96-well tissue culture plates at 2500 cells/mL. The following day, triplicate wells were treated with an appropriate volume of 5x-inhibitor-containing medium. The cells were cultured for 3 additional days at 37° C. in a 5% CO2 humidified incubator. Cell growth was assessed by measuring total DNA content per well using an adaptation of the method of Labarca and Paigen.

blood progenitor cells = settings: previously shown, cited from earlier work

| SMILES | IC50 [1] [nM] | inhibition of growth of Pancl cells [1] | melting point | effectiveness against blood progenitor cells versus cancer cell lines (blood progenitor cells) | therapeutic index compared with gemcitabine (blood progenitor cells; same cell-cell comparison) | decrease in IC50 over the lead compound NSAH (TP8) ([1]; Pancl cells) [fold] | activity/potency against growth of Pancl cells (in words) [1] |
| --- | --- | --- | --- | --- | --- | --- | --- |
| O=C(NNC(=O)c1ccccc1O)c1cccnc1 [TP13, N′-(2-Hydroxybenzoyl)-Nicotinohydrazide] | > 10000 | did not inhibit the growth | 216.6 to 217.7 °C | – | – | – | – |
| O=C(N/N=C/c1c(O)ccc2ccccc12)c1ccccc1O [TP8, (E)-2-Hydroxy-N′-((2-Hydroxynaphthalen-1-Yl)Methylene)-Benzohydrazide] | < 1500 | – | 223.8 °C | much less effective | higher therapeutic index than gemcitabine | – | – |
| O=C(N/N=C/c1cccnc1)c1c(O)ccc2ccccc12 [TP12, (E)-2-Hydroxy-N′-(Pyridin-3-Ylmethylene)-1-Naphthohydrazide] | > 10000 | did not inhibit the growth | 202.8 to 204.5 °C | – | – | – | – |
| O=C(N/N=C/c1cc(-c2ccsc2)ccc1O)c1ccccc1O [TP3, (E)-2-Hydroxy-N′-(2-Hydroxy-5-(Thiophen-3-Yl)-Benzylidene)-Benzohydrazide] | 2000 to 3000 | – | 282.9 to 284.6 °C | – | – | – | – |
| COc1ccc(-c2ccsc2)c(/C=N/NC(=O)c2ccccc2O)c1O [TP6, (E)-2-Hydroxy-N′-(2-Hydroxy-3-Methoxy-6-(Thiophen-3-Yl)Benzylidene)-Benzohydrazide] | < 1500 | – | 229.5 °C | – | – | > 2 | greatest potency |
| O=C(N/N=C/c1c(O)ccc2ccccc12)c1ccc(-n2ccccc2=O)cc1 [TP10, (E)-N′-((2-Hydroxynaphthalen-1-Yl)Methylene)-4-(2-Oxopyridin-1(2H)-Yl)-Benzohydrazide] | 2000 to 3000 | – | 258.6 °C | – | – | – | – |
| O=C1Nc2ccccc2/C1=N\NC(=O)c1ccccc1O [TP1, (E)-2-Hydroxy-N′-(2-Oxoindolin-3-Ylidene)Benzohydrazide] | > 10000 | did not inhibit the growth | – | – | – | – | – |
| COc1ccc(-c2cnc(-c3ccccc3O)s2)cc1 [TP9, 2-(5-(4-Methoxyphenyl)Thiazol-2-Yl)-Phenol] | > 10000 | did not inhibit the growth | 95.2 to 96.8 °C | – | – | – | ineffective |
| Nc1ncnc2c1ncn2-c1ccc(/C=N/NC(=O)c2ccccc2O)cc1 [TP7, (E)-N′-(4-(6-Amino-9H-Purin-9-Yl)Benzylidene)-2-Hydroxybenzohydrazide] | > 10000 | did not inhibit the growth | 229.5 °C | – | – | – | – |
| COc1ccc(-c2ccccc2)c(/C=N/NC(=O)c2ccccc2O)c1O [TP5, (E)-2-Hydroxy-N′-((3-Hydroxy-4-Methoxy-11,1′-Biphenyll-2-Yl)Methylene)-Benzohydrazide] | < 1500 | – | 257.9 to 259.4 °C | – | – | – | – |
| O=C(NNC(=O)c1c(O)ccc2ccccc12)c1cccnc1 [TP11, N′-(2-Hydroxy-1-Naphthoyl)-Nicotinohydrazide] | > 10000 | did not inhibit the growth | 227.1 to 228.6 °C | – | – | – | – |
| O=C(N/N=C/c1cc(-c2ccccc2)ccc1O)c1ccccc1O [TP2] | 2000 to 3000 | – | 273.5 to 274.9 °C | – | – | – | – |
| COc1ccc(-c2ccoc2)c(/C=N/NC(=O)c2ccccc2O)c1O [TP4, (E)-N′-(6-(Furan-3-Yl)-2-Hydroxy-3-Methoxybenzylidene)-2-Hydroxybenzohydrazide] | < 1500 | – | 228.3 °C (dec.) | – | – | – | – |
